Experimental data reported in ChEMBL document CHEMBL4834498, “Positive allosteric modulators (PAMs) of the group II metabotropic glutamate receptors: Design, synthesis, and evaluation as ex-vivo tool compounds” (Bioorg Med Chem Lett, 2021).
Calls of active or inactive are those of the source. No cut-off for these calls is given here.

Tests used:
[1] = target: Metabotropic glutamate receptor 2 (Rattus norvegicus) (UniProt P31421); assay: Positive allosteric modulator activity at rat mGlu2 receptor transfected in GIRK channel overexpressing cells assessed as potentiation of glutamate -induced response by thallium mobilization assay relative to glutamate; set-up: concentration or dose not given beside the values
[2] = target: Metabotropic glutamate receptor 2 (Rattus norvegicus, UniProt P31421); assay: Positive allosteric modulator activity at rat mGlu2 receptor transfected in GIRK channel overexpressing cells assessed as potentiation of glutamate-induced response by thallium mobilization assay
[3] = target: Metabotropic glutamate receptor 3 (Rattus norvegicus) (UniProt P31422); assay: Positive allosteric modulator activity at rat mGlu3 receptor transfected in GIRK channel overexpressing cells assessed as potentiation of glutamate-induced response by thallium mobilization assay relative to glutamate; set-up: concentration or dose not given beside the values
[4] = target: Metabotropic glutamate receptor 3 (Rattus norvegicus, UniProt P31422); assay: Positive allosteric modulator activity at rat mGlu3 receptor transfected in GIRK channel overexpressing cells assessed as potentiation of glutamate-induced response by thallium mobilization assay
[5] = target: Metabotropic glutamate receptor 3 (Mus musculus) (UniProt Q9QYS2); assay: Positive allosteric modulator activity at mGlu3 receptor in CaMK2-Cre::GCaMP6s transgenic mouse PFC pyramidal cells assessed as potentiation of LY379268-induced Ca2+ mobilization at 10 uM in presence of mGlu2 negative allosteric modulator, VU6001966 by calcium imagining analysis; type: functional; conditions: filed as positive allosteric modulator
[6] = filed as positive allosteric modulator

Metabotropic glutamate receptor 2, sequence (P31421 whole entry): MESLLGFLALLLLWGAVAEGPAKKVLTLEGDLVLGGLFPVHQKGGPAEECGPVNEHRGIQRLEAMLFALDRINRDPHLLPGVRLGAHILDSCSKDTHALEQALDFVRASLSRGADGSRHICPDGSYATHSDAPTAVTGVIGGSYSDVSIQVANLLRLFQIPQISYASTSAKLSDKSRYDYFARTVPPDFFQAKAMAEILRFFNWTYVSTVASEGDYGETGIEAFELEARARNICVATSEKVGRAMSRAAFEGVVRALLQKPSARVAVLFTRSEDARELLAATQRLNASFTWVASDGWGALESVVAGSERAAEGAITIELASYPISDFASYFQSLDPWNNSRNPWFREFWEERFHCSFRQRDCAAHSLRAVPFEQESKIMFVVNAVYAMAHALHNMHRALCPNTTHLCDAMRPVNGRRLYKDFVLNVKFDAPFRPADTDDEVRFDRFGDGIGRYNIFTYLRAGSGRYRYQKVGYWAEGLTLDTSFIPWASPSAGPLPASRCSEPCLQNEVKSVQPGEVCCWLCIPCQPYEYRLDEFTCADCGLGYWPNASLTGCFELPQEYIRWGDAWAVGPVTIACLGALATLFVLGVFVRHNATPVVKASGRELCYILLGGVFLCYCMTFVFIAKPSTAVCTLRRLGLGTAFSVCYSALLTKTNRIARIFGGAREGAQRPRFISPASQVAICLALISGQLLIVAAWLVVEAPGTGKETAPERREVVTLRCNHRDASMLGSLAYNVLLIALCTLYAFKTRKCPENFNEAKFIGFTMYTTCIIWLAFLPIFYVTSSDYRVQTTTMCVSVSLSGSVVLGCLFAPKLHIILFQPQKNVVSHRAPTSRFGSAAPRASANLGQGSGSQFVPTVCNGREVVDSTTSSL
Metabotropic glutamate receptor 3 (Rattus norvegicus), sequence (P31422 23-879 limits assumed): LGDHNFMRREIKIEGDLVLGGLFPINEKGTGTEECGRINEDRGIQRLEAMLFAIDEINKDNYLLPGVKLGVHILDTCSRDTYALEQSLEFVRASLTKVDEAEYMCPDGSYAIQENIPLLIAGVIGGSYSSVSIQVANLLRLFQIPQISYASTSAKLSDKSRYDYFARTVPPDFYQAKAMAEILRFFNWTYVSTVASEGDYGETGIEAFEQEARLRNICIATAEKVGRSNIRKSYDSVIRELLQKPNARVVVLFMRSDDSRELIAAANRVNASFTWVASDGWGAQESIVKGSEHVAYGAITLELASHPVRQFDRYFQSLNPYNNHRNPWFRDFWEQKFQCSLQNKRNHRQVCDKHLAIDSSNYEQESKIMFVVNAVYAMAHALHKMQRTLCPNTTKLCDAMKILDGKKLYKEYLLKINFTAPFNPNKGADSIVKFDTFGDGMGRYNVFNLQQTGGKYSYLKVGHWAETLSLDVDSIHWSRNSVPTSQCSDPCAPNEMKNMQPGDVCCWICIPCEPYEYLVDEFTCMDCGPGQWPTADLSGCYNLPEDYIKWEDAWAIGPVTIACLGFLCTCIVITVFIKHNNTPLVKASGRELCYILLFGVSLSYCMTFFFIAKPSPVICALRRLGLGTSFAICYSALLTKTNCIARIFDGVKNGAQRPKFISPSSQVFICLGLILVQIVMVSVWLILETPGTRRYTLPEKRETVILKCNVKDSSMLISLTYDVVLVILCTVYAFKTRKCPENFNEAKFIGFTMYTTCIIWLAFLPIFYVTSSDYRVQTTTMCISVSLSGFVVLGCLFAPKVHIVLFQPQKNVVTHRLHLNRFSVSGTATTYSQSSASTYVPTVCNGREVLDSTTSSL
Metabotropic glutamate receptor 2 (Rattus norvegicus), sequence (P31421 19-872 limits assumed): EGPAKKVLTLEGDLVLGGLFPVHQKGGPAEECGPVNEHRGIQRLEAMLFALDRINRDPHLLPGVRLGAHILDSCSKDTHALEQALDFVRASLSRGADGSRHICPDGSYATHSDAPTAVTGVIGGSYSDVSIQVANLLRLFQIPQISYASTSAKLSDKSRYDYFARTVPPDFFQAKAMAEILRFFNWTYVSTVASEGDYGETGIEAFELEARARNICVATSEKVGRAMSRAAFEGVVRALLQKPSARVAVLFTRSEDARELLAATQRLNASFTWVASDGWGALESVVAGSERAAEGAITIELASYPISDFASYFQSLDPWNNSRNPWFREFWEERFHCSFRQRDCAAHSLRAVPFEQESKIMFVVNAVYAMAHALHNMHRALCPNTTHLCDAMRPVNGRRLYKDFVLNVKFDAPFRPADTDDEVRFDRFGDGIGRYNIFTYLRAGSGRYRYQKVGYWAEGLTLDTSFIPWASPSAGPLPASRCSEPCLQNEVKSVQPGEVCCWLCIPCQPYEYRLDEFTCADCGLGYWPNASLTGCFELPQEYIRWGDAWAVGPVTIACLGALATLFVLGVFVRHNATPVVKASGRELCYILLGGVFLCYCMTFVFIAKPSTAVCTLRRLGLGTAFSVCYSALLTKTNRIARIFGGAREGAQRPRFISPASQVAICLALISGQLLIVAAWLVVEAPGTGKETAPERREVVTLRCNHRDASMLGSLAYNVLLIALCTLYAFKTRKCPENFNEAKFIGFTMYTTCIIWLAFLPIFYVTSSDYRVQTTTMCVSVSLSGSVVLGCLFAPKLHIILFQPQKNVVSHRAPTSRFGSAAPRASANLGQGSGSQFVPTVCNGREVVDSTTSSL
Metabotropic glutamate receptor 3, sequence (P31422 whole entry): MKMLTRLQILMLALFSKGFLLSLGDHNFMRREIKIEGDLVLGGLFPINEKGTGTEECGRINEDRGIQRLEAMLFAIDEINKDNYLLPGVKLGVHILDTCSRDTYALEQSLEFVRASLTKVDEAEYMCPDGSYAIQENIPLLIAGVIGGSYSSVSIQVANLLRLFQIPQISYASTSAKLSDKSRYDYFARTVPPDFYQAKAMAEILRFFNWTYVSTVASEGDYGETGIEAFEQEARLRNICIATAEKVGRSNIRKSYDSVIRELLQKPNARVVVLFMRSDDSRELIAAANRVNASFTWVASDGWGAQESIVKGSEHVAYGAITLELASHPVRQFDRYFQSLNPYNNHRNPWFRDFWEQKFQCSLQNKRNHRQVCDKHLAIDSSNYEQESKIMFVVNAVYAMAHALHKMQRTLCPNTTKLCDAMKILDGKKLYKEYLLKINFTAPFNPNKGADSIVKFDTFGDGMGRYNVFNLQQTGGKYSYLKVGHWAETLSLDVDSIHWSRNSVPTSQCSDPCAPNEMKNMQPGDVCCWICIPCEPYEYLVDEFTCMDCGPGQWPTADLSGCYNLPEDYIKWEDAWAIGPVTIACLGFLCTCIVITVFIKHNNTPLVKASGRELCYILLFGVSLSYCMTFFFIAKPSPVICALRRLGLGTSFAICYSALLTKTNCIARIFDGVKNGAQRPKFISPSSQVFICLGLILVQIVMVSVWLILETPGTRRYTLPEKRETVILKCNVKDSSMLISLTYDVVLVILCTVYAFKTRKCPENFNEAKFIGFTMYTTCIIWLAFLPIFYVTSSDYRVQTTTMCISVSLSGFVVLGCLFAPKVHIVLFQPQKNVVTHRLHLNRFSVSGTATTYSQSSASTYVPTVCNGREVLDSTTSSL
Metabotropic glutamate receptor 3 (Mus musculus), sequence (Q9QYS2 whole entry): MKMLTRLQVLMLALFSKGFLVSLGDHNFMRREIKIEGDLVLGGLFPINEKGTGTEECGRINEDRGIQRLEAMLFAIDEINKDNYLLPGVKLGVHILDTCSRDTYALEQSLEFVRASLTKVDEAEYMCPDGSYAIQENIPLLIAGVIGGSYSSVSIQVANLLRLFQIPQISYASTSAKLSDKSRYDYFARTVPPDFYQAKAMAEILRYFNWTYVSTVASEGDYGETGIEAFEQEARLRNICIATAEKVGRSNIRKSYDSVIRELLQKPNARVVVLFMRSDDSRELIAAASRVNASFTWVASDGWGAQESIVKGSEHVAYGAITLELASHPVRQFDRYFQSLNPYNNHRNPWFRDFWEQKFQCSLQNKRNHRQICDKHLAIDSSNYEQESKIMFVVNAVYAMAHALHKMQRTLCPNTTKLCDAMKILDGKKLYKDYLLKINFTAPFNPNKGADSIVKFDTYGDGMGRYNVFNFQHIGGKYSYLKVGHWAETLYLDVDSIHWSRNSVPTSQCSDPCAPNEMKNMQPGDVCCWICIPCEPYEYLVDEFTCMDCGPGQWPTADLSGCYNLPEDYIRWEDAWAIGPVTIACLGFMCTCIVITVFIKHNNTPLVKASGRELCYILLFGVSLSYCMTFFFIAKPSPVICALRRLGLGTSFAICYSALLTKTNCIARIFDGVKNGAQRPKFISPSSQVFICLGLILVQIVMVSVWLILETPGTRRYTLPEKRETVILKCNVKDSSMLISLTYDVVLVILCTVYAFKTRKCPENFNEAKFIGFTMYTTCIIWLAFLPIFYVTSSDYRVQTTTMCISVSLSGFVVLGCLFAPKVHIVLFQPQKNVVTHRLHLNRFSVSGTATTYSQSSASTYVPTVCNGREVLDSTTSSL

SMILES | Activity [1, 6] [%] | EC50 ([2]; read-out: EC50) [nM] | Activity [3, 6] [%] | EC50 ([4]; read-out: EC50) [nM] | Activity [3] | EC50 [4] | Activity [5] | Activity [1] | EC50 [2]
Cc1c(O[C@H](C)COc2ccc(F)c(C(=O)O)c2)ccc(C(=O)CC(C)(C)C)c1O | 118 | 83 | 79 | 2410 | – | – | – | – | –
COc1ccc(C(=O)O)cc1O[C@@H](C)COc1ccc(C(=O)CC(C)(C)C)c(O)c1C | 117 | 137 | 91 | 2210 | – | – | – | – | –
Cc1c(OCCCCOc2ccc(F)c(C(=O)N(C)C)c2)ccc(C(=O)CC(C)(C)C)c1O | 60 | 3810 | – | – | inactive | Not Active | – | – | –
COc1ccc(OCCCCOc2ccc(C(=O)CC(C)(C)C)c(O)c2C)cc1C(=O)O | 116 | 13 | 99 | 490 | – | – | – | – | –
COc1ccc(OCCCCOc2ccc(C(=O)CC(C)(C)C)c(O)c2C)cc1 | 103 | > 10000 | – | – | inactive | Not Active | – | – | –
COc1cc(OC[C@H](C)COc2ccc(C(=O)CC(C)(C)C)c(O)c2C)ccc1C(=O)O | 94 | 194 | 88 | 1460 | – | – | – | – | –
Cc1cc(C(=O)O)ccc1OC[C@H](C)COc1ccc(C(=O)CC(C)(C)C)c(O)c1C | 113 | 446 | 97 | 1520 | – | – | – | – | –
COc1ccc(C(=O)N(C)C)cc1OCC(C)COc1ccc(C(=O)CC(C)(C)C)c(O)c1C (single isomer, unassigned) | 82 | 5060 | – | – | inactive | Not Active | – | – | –
Cc1c(OCCCCOc2cncc(C(=O)O)c2)ccc(C(=O)CC(C)(C)C)c1O | 120 | 490 | 91 | 180 | – | – | – | – | –
CNC(=O)c1cc(OCCCCOc2ccc(C(=O)CC(C)(C)C)c(O)c2C)ccc1F | 110 | 164 | 103 | 476 | – | – | Active | – | –
Cc1ncc(OCCCCOc2ccc(C(=O)CC(C)(C)C)c(O)c2C)cc1C(=O)O | 116 | 28 | 103 | 79 | – | – | – | – | –
COc1ccc(C(=O)O)cc1OC[C@H](C)Oc1ccc(C(=O)CC(C)(C)C)c(O)c1C | – | – | 71 | 3820 | – | – | – | – | –
Cc1c(OC[C@@H](C)COc2ccc(C(=O)O)c(F)c2)ccc(C(=O)CC(C)(C)C)c1O | 94 | 261 | 86 | 1090 | – | – | – | – | –
Cc1c(OCC(C)COc2ccc(C(=O)O)cc2Cl)ccc(C(=O)CC(C)(C)C)c1O (single isomer, unassigned) | 97 | 477 | 98 | 1650 | – | – | – | – | –
Cc1c(OC[C@@H](C)COc2ccc(C(=O)O)c(Cl)c2)ccc(C(=O)CC(C)(C)C)c1O | 107 | 50 | 93 | 860 | – | – | – | – | –
COC(=O)c1cc(OCCCCOc2ccc(C(=O)CC(C)(C)C)c(O)c2C)ccc1F | – | – | – | – | inactive | Not Active | – | – | –
COc1ccc(C(=O)O)cc1O[C@H](C)COc1ccc(C(=O)CC(C)(C)C)c(O)c1C | – | – | 111 | 1850 | – | – | – | – | –
COc1ccc(C(=O)O)cc1OC[C@@H](C)COc1ccc(C(=O)CC(C)(C)C)c(O)c1C | – | – | 120 | 1040 | – | – | – | – | –
Cc1c(OC[C@@H](C)COc2ccc(Cl)c(C(=O)O)c2)ccc(C(=O)CC(C)(C)C)c1O | 120 | 377 | 73 | 2200 | – | – | – | – | –
Cc1c(O[C@@H](C)COc2ccc(F)c(C(=O)O)c2)ccc(C(=O)CC(C)(C)C)c1O | 114 | 257 | 89 | 1120 | – | – | – | – | –
Cc1ccc(OCCCCOc2ccc(C(=O)CC(C)(C)C)c(O)c2C)cc1C(=O)O | 90 | 210 | 88 | 309 | – | – | – | – | –

SMILES | Activity [1, 6] [%] | EC50 ([2]; read-out: EC50) [nM] | Activity [3, 6] [%] | EC50 ([4]; read-out: EC50) [nM] | Activity [3] | EC50 [4] | Activity [5] | Activity [1] | EC50 [2]
Cc1c(OC[C@@H](C)Oc2ccc(F)c(C(=O)O)c2)ccc(C(=O)CC(C)(C)C)c1O | 125 | 112 | 117 | 1210 | – | – | – | – | –
COc1cccc(OC[C@H](C)COc2ccc(C(=O)CC(C)(C)C)c(O)c2C)c1 | – | – | – | – | inactive | Not Active | – | inactive | Not Active
Cc1c(OC[C@@H](C)COc2ccc3c(c2)C(=O)NC3)ccc(C(=O)CC(C)(C)C)c1O | 50 | > 10000 | – | – | inactive | Not Active | – | – | –
COc1cc(OCCCCOc2ccc(C(=O)CC(C)(C)C)c(O)c2C)cc(C(=O)O)c1 | 116 | 102 | 102 | 703 | – | – | – | – | –
COc1ccc(C(=O)O)cc1OC[C@H](C)COc1ccc(C(=O)CC(C)(C)C)c(O)c1C | 98 | 63 | 111 | 384 | – | – | Active | – | –
COc1ccccc1OCC(C)COc1ccc(C(=O)CC(C)(C)C)c(O)c1C (single isomer, unassigned) | – | – | – | – | inactive | Not Active | – | inactive | Not Active
COc1ccc(C(=O)O)cc1OC[C@@H](C)Oc1ccc(C(=O)CC(C)(C)C)c(O)c1C | 114 | 78 | 97 | 806 | – | – | – | – | –
COc1cc(C(=O)O)ccc1OC[C@H](C)COc1ccc(C(=O)CC(C)(C)C)c(O)c1C | 110 | 28 | 93 | 512 | – | – | – | – | –
Cc1c(OCCCCOc2ccc(Cl)c(C(=O)O)c2)ccc(C(=O)CC(C)(C)C)c1O | 112 | 87 | 87 | 130 | – | – | – | – | –
Cc1ccc(OC[C@H](C)COc2ccc(C(=O)CC(C)(C)C)c(O)c2C)cc1C(=O)O | – | – | 48 | > 10000 | – | – | – | – | –
Cc1c(OCCCCOc2ccc(F)c(C(N)=O)c2)ccc(C(=O)CC(C)(C)C)c1O | 107 | > 10000 | – | – | inactive | Not Active | – | – | –
Cc1ccc(C(=O)O)cc1OCCCCOc1ccc(C(=O)CC(C)(C)C)c(O)c1C | 120 | 512 | 144 | 892 | – | – | – | – | –
Cc1c(OCC(C)COc2cc(C(=O)O)ccc2F)ccc(C(=O)CC(C)(C)C)c1O (single isomer, unassigned) | – | – | 74 | 3950 | – | – | – | – | –
Cc1c(OC[C@H](C)Oc2ccc(F)c(C(=O)O)c2)ccc(C(=O)CC(C)(C)C)c1O | 122 | 142 | 105 | 1100 | – | – | – | – | –
Cc1c(OC[C@@H](C)COc2ccc(F)c(C(=O)O)c2)ccc(C(=O)CC(C)(C)C)c1O | 99 | 112 | 92 | 1180 | – | – | – | – | –
Cc1c(OCC(C)COc2ccc(C(=O)O)cc2F)ccc(C(=O)CC(C)(C)C)c1O (single isomer, unassigned) | 98 | 222 | 87 | 1300 | – | – | – | – | –
Cc1c(OCCCCOc2ccc(C(=O)O)cc2F)ccc(C(=O)CC(C)(C)C)c1O | 114 | 75 | 98 | 1230 | – | – | – | – | –
Cc1c(OCCCCOc2ccc(C(=O)O)c(F)c2)ccc(C(=O)CC(C)(C)C)c1O | 108 | 80 | 107 | 1110 | – | – | – | – | –
Cc1cc(OC[C@H](C)COc2ccc(C(=O)CC(C)(C)C)c(O)c2C)ccc1C(=O)O | 91 | 305 | 80 | 1350 | – | – | – | – | –
Cc1c(OC[C@H](C)COc2ccc(F)c(C(=O)O)c2)ccc(C(=O)CC(C)(C)C)c1O | 114 | 294 | 87 | 651 | – | – | – | – | –
